# Assay results reported in ChEMBL document CHEMBL3132769, “Fragment growing to retain or alter the selectivity of anchored kinase hinge-binding fragments” (Medchemcomm, 2014).
# What was measured:
# [1] = target: T1, Testis-specific serine/threonine-protein kinase 2 (Homo sapiens) (UniProt Q96PF2); assay: Inhibition of human full length TSSK2 expressed in baculovirus assessed as substrate phosphorylation using fluorescence-labelled peptides as substrate at 0.2 uM after 90 mins by microfluidic peptide phosphorylation assay
# T1 sequence (whole entry): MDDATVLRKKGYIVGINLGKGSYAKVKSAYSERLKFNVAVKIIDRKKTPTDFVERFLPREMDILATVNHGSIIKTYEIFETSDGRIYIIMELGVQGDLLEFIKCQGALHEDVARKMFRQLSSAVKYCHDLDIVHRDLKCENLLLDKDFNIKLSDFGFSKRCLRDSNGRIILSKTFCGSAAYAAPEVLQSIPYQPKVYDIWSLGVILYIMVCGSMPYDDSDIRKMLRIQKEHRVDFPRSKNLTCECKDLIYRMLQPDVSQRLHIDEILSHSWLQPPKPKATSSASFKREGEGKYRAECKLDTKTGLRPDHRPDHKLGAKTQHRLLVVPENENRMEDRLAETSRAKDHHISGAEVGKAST
# [2] = target: Fibroblast growth factor receptor 2 (Homo sapiens) (UniProt P21802); assay: Inhibition of human FGFR2 catalytic domain expressed in baculovirus assessed as substrate phosphorylation using fluorescence-labelled peptides as substrate at 420 uM after 90 mins by microfluidic peptide phosphorylation assay
# [3] = target: Fibroblast growth factor receptor 1 (Homo sapiens) (UniProt P11362); assay: Inhibition of human FGFR1 catalytic domain expressed in baculovirus assessed as substrate phosphorylation using fluorescence-labelled peptides as substrate at 9 uM after 90 mins by microfluidic peptide phosphorylation assay
# [4] = test system: Tyrosine-protein kinase ABL1 (Homo sapiens), P00519 [Q252H]; assay: Inhibition of human truncated ABL Q252H mutant expressed in baculovirus assessed as substrate phosphorylation using fluorescence-labelled peptides as substrate at 2 uM after 90 mins by microfluidic peptide phosphorylation assay
# [5] = target: T2, Interleukin-1 receptor-associated kinase 4 (Homo sapiens) (UniProt Q9NWZ3); assay: Inhibition of human IRAK4 catalytic domain expressed in baculovirus assessed as substrate phosphorylation using fluorescence-labelled peptides as substrate at 2 uM after 90 mins by microfluidic peptide phosphorylation assay
# T2 sequence (whole entry): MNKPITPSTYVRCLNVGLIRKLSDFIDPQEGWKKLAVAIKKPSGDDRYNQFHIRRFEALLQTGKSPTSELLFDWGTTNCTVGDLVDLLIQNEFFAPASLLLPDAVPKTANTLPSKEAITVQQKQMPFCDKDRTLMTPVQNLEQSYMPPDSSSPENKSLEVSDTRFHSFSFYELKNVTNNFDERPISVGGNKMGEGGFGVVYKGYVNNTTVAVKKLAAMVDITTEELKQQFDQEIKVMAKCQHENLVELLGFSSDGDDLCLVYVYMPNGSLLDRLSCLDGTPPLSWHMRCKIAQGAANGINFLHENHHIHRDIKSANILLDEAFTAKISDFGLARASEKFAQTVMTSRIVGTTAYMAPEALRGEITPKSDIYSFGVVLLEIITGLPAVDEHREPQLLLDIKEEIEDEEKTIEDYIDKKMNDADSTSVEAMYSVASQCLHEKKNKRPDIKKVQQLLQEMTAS
# [6] = target: Hepatocyte growth factor receptor (Homo sapiens) (UniProt P08581); assay: Inhibition of human MET cytoplasmic domain expressed in baculovirus assessed as substrate phosphorylation using fluorescence-labelled peptides as substrate at 95 uM after 90 mins by microfluidic peptide phosphorylation assay
# [7] = target: Serine/threonine-protein kinase pim-1 (Homo sapiens) (UniProt P11309); assay: Inhibition of human full length PIM1 expressed in baculovirus assessed as substrate phosphorylation using fluorescence-labelled peptides as substrate at 70 uM after 90 mins by microfluidic peptide phosphorylation assay
# [8] = target: T3, Serine/threonine-protein kinase D3 (Homo sapiens) (UniProt O94806); assay: Inhibition of human full length PKD3 expressed in baculovirus assessed as substrate phosphorylation using fluorescence-labelled peptides as substrate at 70 uM after 90 mins by microfluidic peptide phosphorylation assay
# T3 sequence (whole entry): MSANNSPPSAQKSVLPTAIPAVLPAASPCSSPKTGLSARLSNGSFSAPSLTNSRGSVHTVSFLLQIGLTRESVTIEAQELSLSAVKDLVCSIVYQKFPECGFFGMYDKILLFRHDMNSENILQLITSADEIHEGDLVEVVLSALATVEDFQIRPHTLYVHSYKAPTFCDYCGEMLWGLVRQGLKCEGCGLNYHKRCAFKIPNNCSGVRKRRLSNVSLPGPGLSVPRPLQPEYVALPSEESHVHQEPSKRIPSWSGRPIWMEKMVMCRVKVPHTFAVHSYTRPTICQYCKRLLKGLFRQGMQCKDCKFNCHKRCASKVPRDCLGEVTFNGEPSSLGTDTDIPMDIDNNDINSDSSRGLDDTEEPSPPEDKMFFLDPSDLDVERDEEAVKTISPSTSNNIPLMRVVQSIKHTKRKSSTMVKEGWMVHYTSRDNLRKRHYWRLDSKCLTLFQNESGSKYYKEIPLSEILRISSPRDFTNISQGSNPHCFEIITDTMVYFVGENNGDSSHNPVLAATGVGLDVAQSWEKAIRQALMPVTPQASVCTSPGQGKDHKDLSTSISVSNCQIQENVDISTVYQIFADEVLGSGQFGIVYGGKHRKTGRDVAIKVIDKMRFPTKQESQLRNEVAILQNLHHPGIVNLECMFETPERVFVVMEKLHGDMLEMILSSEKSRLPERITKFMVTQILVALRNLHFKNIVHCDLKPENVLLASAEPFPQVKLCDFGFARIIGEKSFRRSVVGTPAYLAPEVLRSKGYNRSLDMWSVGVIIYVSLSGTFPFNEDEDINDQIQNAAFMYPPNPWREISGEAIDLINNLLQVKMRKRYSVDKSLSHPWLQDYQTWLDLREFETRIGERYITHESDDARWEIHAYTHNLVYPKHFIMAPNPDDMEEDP
# [9] = target: Protein kinase C beta type (Homo sapiens) (UniProt P05771); assay: Inhibition of human full length PKC beta2 expressed in baculovirus assessed as substrate phosphorylation using fluorescence-labelled peptides as substrate at 70 uM after 90 mins by microfluidic peptide phosphorylation assay
# [10] = target: Calcium/calmodulin-dependent protein kinase type II subunit gamma (Homo sapiens) (UniProt Q13555); assay: Inhibition of human CAMK2 gamma catalytic domain expressed in baculovirus assessed as substrate phosphorylation using fluorescence-labelled peptides as substrate at 70 uM after 90 mins by microfluidic peptide phosphorylation assay
# [11] = target: Tyrosine-protein kinase ABL1 (Homo sapiens) (UniProt P00519); assay: Inhibition of human full-length ABL expressed in baculovirus assessed as substrate phosphorylation using fluorescence-labelled peptides as substrate at 70 uM after 90 mins by microfluidic peptide phosphorylation assay
# Hepatocyte growth factor receptor (Homo sapiens), sequence (P08581 whole entry, the tested form may be a part): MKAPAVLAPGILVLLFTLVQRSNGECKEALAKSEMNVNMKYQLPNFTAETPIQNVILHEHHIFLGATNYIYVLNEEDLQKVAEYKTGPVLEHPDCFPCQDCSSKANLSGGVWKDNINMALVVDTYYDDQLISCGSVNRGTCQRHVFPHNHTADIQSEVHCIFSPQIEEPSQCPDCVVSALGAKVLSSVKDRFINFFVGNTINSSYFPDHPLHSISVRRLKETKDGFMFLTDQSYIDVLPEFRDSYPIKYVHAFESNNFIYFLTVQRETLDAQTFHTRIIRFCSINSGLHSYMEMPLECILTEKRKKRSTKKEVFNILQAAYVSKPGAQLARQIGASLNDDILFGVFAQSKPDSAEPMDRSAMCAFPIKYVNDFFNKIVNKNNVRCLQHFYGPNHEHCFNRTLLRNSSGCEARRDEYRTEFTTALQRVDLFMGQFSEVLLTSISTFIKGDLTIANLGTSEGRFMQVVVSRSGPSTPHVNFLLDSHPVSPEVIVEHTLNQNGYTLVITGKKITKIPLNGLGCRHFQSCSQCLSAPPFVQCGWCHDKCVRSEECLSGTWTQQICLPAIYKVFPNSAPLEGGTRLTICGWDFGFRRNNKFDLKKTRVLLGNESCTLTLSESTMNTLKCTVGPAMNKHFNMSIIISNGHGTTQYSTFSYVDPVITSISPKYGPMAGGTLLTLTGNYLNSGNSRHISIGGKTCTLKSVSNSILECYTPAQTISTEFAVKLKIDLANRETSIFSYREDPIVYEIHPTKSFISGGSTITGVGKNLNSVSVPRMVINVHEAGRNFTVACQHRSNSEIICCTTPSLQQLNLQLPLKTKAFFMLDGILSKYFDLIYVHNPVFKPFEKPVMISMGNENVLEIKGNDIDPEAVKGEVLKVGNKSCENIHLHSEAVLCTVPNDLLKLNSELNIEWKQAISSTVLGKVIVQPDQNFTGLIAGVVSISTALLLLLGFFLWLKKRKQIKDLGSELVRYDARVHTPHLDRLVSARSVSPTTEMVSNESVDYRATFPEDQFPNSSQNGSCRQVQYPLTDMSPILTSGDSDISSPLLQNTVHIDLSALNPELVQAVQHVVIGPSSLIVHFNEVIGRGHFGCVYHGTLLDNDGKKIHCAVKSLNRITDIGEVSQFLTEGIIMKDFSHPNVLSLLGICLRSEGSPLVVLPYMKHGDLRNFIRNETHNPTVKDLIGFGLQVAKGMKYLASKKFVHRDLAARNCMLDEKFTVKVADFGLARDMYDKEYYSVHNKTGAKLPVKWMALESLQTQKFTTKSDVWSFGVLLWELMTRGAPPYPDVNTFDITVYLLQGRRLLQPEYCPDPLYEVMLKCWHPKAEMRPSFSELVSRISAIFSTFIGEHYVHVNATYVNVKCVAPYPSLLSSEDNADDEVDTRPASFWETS
# Fibroblast growth factor receptor 2 (Homo sapiens), sequence (P21802 22-821 limits assumed): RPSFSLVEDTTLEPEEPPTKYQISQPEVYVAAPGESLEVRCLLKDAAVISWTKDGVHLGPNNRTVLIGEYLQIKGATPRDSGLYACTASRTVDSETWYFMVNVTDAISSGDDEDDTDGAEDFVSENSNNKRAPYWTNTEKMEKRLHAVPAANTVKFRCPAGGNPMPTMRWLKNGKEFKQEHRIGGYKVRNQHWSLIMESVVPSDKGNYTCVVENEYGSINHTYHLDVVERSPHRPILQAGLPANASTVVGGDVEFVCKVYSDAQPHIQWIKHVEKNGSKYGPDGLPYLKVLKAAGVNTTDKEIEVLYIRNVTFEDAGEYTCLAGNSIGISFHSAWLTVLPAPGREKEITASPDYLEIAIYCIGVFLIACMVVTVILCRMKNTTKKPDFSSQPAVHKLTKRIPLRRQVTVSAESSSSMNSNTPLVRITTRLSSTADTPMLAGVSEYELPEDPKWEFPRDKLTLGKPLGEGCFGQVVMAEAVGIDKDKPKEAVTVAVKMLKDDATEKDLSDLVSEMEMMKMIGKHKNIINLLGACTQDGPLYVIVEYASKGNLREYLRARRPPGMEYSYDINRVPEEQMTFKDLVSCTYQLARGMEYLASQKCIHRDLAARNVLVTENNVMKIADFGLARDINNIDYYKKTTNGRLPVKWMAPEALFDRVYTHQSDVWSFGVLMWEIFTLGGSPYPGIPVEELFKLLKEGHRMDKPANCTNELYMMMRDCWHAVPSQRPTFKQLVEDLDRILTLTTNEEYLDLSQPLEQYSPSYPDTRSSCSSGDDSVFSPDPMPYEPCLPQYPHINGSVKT
# Fibroblast growth factor receptor 1 (Homo sapiens), sequence (P11362 22-822 limits assumed): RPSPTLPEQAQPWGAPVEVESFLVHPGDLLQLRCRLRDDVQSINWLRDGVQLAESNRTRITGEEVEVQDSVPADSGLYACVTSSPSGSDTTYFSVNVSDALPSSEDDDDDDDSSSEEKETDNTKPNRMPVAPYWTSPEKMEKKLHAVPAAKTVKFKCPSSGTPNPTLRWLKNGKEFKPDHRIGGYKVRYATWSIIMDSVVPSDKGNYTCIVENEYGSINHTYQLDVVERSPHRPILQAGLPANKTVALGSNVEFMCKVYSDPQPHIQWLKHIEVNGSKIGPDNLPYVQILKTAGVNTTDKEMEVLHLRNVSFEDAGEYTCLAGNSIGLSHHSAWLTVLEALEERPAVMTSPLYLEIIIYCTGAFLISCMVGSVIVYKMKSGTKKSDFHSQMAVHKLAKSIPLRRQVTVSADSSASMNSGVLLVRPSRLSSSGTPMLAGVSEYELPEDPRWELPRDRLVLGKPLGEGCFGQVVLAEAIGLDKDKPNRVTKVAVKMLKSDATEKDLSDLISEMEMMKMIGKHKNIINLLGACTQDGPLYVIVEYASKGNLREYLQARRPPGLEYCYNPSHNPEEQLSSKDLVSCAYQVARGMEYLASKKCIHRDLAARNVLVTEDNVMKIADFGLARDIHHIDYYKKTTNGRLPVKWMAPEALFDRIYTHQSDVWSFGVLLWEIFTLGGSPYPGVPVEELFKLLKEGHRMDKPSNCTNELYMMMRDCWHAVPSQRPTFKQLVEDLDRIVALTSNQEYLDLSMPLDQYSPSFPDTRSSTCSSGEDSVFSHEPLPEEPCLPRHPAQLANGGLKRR
# Calcium/calmodulin-dependent protein kinase type II subunit gamma (Homo sapiens), sequence (Q13555 whole entry, the tested form may be a part): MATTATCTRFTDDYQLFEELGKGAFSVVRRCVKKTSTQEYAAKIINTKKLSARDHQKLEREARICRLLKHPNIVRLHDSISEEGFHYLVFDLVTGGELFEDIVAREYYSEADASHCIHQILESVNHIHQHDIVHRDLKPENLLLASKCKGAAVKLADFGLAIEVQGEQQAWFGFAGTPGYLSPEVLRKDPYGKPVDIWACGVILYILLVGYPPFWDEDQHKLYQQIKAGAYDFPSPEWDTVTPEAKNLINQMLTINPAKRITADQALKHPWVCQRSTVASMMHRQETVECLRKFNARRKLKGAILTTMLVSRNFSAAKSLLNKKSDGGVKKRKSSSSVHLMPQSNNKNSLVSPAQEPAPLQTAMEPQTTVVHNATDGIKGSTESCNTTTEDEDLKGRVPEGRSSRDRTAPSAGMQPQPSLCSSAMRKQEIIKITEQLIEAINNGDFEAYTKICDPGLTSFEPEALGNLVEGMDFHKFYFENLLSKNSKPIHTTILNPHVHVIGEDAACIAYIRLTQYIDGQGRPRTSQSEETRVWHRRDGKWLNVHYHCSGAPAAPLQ
# Protein kinase C beta type (Homo sapiens), sequence (P05771 2-671 limits assumed): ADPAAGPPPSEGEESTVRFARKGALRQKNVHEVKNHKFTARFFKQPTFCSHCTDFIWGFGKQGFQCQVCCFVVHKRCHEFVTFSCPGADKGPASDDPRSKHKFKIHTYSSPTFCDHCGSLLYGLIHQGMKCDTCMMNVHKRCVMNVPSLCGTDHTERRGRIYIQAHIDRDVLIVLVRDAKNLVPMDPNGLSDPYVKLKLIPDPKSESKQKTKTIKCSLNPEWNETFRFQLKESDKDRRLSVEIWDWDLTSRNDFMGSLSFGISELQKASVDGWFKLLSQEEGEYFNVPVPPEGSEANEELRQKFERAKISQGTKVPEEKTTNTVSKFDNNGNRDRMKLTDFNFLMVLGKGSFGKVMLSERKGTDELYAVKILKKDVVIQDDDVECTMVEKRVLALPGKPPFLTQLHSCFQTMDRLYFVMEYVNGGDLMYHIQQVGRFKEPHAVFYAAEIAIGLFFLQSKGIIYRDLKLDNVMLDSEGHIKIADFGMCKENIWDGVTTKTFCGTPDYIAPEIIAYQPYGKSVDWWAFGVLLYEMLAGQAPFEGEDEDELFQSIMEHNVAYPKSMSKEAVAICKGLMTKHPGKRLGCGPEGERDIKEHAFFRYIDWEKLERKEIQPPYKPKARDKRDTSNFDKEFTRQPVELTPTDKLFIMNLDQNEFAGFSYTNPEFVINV
# Serine/threonine-protein kinase pim-1 (Homo sapiens), sequence (P11309 whole entry, looked up): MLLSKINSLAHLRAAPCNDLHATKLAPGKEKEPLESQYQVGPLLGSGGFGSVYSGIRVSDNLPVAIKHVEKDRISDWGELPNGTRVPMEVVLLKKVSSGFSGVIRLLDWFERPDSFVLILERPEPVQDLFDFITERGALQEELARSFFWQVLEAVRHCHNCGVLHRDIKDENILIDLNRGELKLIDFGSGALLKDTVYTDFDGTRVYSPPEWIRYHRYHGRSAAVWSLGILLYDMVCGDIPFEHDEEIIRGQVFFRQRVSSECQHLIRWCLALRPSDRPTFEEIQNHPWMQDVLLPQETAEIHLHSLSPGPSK
smiles,measurement,setting,value
Clc1ccc(C2(c3ccc(-c4ncnc5[nH]cnc45)cc3)CCNCC2)cc1,inhibition,[1],7%
c1nc(N2CCOCC2)c2nc[nH]c2n1,inhibition,[2],93%
NCC1CN(c2ncnc3[nH]c4cnccc4c23)CCO1 (stereo unspecified),inhibition,[3],55.5%
NC1CCN(c2ncnc3[nH]ccc23)CC1,inhibition,[4],17%
same,inhibition,[5],1.5%
NCCc1ccc(-c2ncnc3[nH]cnc23)cc1,inhibition,[6],5.5%
CNCc1ccc(-c2ncnc3[nH]cnc23)cc1,inhibition,[7],26%
same,inhibition,[8],72.5%
same,inhibition,[9],0%
same,inhibition,[10],16%
same,inhibition,[11],47.5%
